Test results published in paper PMC9838390, “Discovery and biosynthesis of karnamicins as angiotensin converting enzyme inhibitors” (Nature Communications, 2023).
Where “and” joins values, the source holds several entries; their conditions need not be identical. Identical values can stand only once.

Assays:
[1] = Stability in enzyme reaction buffer; format: physicochemical; conditions: reaction buffer (50 mM Tris-HCl, pH 7.5, 30 °C)
Method: To further examine the catalytic role of methyltransferase KnmF and monooxygenases KnmB1 and KnmB2 during the karnamicin assembly process, we decided to characterize their enzyme activities in vitro. For KnmF, we synthesized 28 (Fig. 3, Supplementary Figs. 111–116, and Supplementary Table 19), a putative dedicated substrate of KnmF with a trihydroxypyridine core. Subsequently, a time course analysis of the enzyme-catalyzed reaction was performed with KnmF expressed by Escherichia coli BL21 (DE3) cells (Supplementary Fig. 117) and 28. Intriguingly, immediately following the consumption of 28, a compound 30 appeared. The subsequent decrease in abundance of 30 was accompanied by the accumulation of karnamicin E1 (1) (Fig. 4a). […]
The reaction of KnmF was carried out at 30 °C in a 100 µL system containing 50 mM Tris-HCl buffer (pH 7.5), 1 mM compound 28, 2 mM SAM, and 2 μM KnmF. […] After centrifugation (10 min at 13,523×g), the supernatant was analyzed by HPLC-DAD with solvent gradient as follows: T = 0 min, 55% B; T = 13.5 min, 55% B; T = 19 min, 65% B; T = 35 min, 65% B; T = 40 min, 100% B; T = 45 min, 100% B; T = 45.1 min, 55% B; T = 51 min, 55% B (A, H2O + 0.1% CH3COOH, v/v; B, MeCN), and the column temperature was 25 °C (Analytical method B).

KnmB1 [2] = assay: Hydrogen peroxide formation assay of KnmB1 and variants; format: biochemical, L. rhizosphaerae NEAU-A2; conditions: 30 °C, average of 3
Method: Hydrogen peroxide formation assay and NADPH oxidation
The hydrogen peroxide formed from KnmB1, KnmB2 and their variants were measured using the Hydrogen Peroxide Assay Kit (Beyotime Industrial Co. Ltd, Shanghai, China)4-5. 5–100 µL of enzyme reaction mixture was added to 100 µL of working reagent (S0038-1). The mixture was incubated for 30 min at 25 °C, at which time the absorbance at 560 nm was measured by NanoDrop 2000c (Fisher Scientific). […]
(§1) Spectral data for new compounds […]
Supplementary Figure 131. H2O2 generation and NADPH oxidation for KnmB2, KnmB1 and their variants. (a) Hydrogen peroxide formation of KnmB2 and variants. […]
(b) Hydrogen peroxide formation of KnmB1 and variants. Reaction conditions: 100 µL system containing 50 mM Tris-HCl buffer (pH 7.5), 1 mM NADPH, 16 μM KnmB2, 17 μM KnmB1 or variants, 0.1 mM compound 24,1 mM SAM, and 2 […]
(1 picture or pasted object on this page, not shown here) […]
μM KnmF at 30 °C for 3h. (c) Hydrogen peroxide formation of KnmB1 and variants.
Reaction conditions: 100µL system containing 50 mM Tris-HCl buffer (pH 7.5), 0.3 mM NADPH, and 6 μM KnmB1 or variants, or 0.1 mM 24 at 30 °C for 30 min. […]
(§2) 2 μM KnmB2 or variants, or 0.1 mM substrate 24/32. […]
(§3) Source data are provided as a Source Data file. […]

KnmB1 [3] = assay: NADPH oxidation of KnmB1 and variants (340 nm); format: biochemical, L. rhizosphaerae NEAU-A2; conditions: KnmB1 + compound
Method: Hydrogen peroxide formation assay and NADPH oxidation […]
NADPH detection was carried out in the cuvette by NanoDrop 2000c (Fisher Scientific). NADPH signal at 340 nm was monitored in time using 6220 M–1 cm–1 as […]
as §1
Reaction conditions: 50 mM Tris-HCl buffer (pH 7.5), 0.15 mM NADPH, and 2 μM KnmB1 or KnmB2. (e) NADPH oxidation of KnmB1 and variants. (f) NADPH oxidation of KnmB1 in the presence 24/32/36. (g) NADPH oxidation of KnmB1 and variants in the presence 24. Reaction conditions (e-g) for KnmB1 and their variants: 50 mM Tris-HCl buffer (pH 7.5), 0.15 mM NADPH, and 6 μM KnmB1 or variants, or 0.1 mM substrate 24/32/36. […]
as §2, §3

For CC(C)CCCCc1nc(-c2nc(C(N)=O)c(O)c(O)c2O)cs1 [Compound 28], the “stability in the reaction buffer” value [1] was “degraded rapidly”.
With COc1cc(-c2csc(CCCC(C)=O)n2)nc(C(N)=O)c1O [Compound 36] the “hydrogen peroxide formation of KnmB1 (absorbance UV λ=560 nm), average value” (KnmB1 [2]; Fig. S131b, 1 mM NADPH, 17 μM KnmB1, 0.1 mM compound, 3 h) was 0.0940, the “hydrogen peroxide formation of KnmB1 (absorbance UV λ=560 nm), average value” (KnmB1 [2]; Fig. S131c, 0.3 mM NADPH, 6 μM KnmB1, 0.1 mM compound, 30 min) was 0.0678 and the “NADPH oxidation of KnmB1 in the presence of compound (replicates 1, 2, 3)” value (shortened to “NADPH oxidation of KnmB1 … (replicates 1, 2, 3)”) (KnmB1 [3]; Time 0) was 0.0000 µM. The “NADPH oxidation of KnmB1 in the presence of compound, average value” (shortened to “NADPH oxidation of KnmB1 … average value”) (KnmB1 [3]; Time 0) was 0.0000 µM, the “NADPH oxidation of KnmB1 … (replicates 1, 2, 3)” value (KnmB1 [3]; Time 1) was 2.6688 µM and 1.0450 µM and 0.7235 µM and the “NADPH oxidation of KnmB1 … average value” (KnmB1 [3]; Time 1) was 1.4791 µM. For the same compound, the “NADPH oxidation of KnmB1 … (replicates 1, 2, 3)” value (KnmB1 [3]; Time 2) was 3.7942 µM and 2.2669 µM and 1.4470 µM, the “NADPH oxidation of KnmB1 … average value” (KnmB1 [3]; Time 2) was 2.5027 µM and the “NADPH oxidation of KnmB1 … (replicates 1, 2, 3)” value (KnmB1 [3]; Time 3) was 3.7460 µM and 2.5241 µM and 4.3730 µM. The “NADPH oxidation of KnmB1 … average value” (KnmB1 [3]; Time 3) was 3.5477 µM, the “NADPH oxidation of KnmB1 … (replicates 1, 2, 3)” value (KnmB1 [3]; Time 4) was 4.9196 µM and 2.5241 µM and 5.4662 µM and the “NADPH oxidation of KnmB1 … average value” (KnmB1 [3]; Time 4) was 4.3033 µM. For the same compound, the “NADPH oxidation of KnmB1 … (replicates 1, 2, 3)” value (KnmB1 [3]; Time 5) was 4.7428 µM and 3.0064 µM and 5.6752 µM, the “NADPH oxidation of KnmB1 … average value” (KnmB1 [3]; Time 5) was 4.4748 µM and the “NADPH oxidation of KnmB1 … (replicates 1, 2, 3)” value (KnmB1 [3]; Time 8) was 5.8360 µM and 3.0064 µM and 8.0225 µM. The “NADPH oxidation of KnmB1 … average value” (KnmB1 [3]; Time 8) was 5.6217 µM, the “NADPH oxidation of KnmB1 … (replicates 1, 2, 3)” value (KnmB1 [3]; Time 10) was 7.2669 µM and 6.4791 µM and 10.8521 µM and the “NADPH oxidation of KnmB1 … average value” (KnmB1 [3]; Time 10) was 8.1994 µM. The “NADPH oxidation of KnmB1 … (replicates 1, 2, 3)” value (KnmB1 [3]; Time 15) was 7.5080 µM and 6.4791 µM and 13.8264 µM, the “NADPH oxidation of KnmB1 … average value” (KnmB1 [3]; Time 15) was 9.2712 µM and the “NADPH oxidation of KnmB1 … (replicates 1, 2, 3)” value (KnmB1 [3]; Time 20) was 10.4502 µM and 12.1865 µM and 17.0257 µM. The “NADPH oxidation of KnmB1 … average value” (KnmB1 [3]; Time 20) was 13.2208 µM, the “NADPH oxidation of KnmB1 … (replicates 1, 2, 3)” value (KnmB1 [3]; Time 30) was 12.4116 µM and 12.1865 µM and 21.2701 µM and the “NADPH oxidation of KnmB1 … average value” (KnmB1 [3]; Time 30) was 15.2894 µM. The “NADPH oxidation of KnmB1 … (replicates 1, 2, 3)” value (KnmB1 [3]; Time 40) was 13.9068 µM and 22.9261 µM and 27.0579 µM, the “NADPH oxidation of KnmB1 … average value” (KnmB1 [3]; Time 40) was 21.2969 µM and the “NADPH oxidation of KnmB1 … (replicates 1, 2, 3)” value (KnmB1 [3]; Time 60) was 18.0547 µM and 22.9261 µM and 35.3698 µM. The “NADPH oxidation of KnmB1 … average value” (KnmB1 [3]; Time 60) was 25.4502 µM.
